Measured values published in US5677341A, “Emulsion suitable for administering a sphingolipid” (priority 1996, dated 1997).

Assays:
[1] = primary amine group of sphingosine; cited from earlier work
protein kinase C = conditions: in vitro and in vivo; cited from earlier work
[2] = acute toxicity on administration in the emulsion (infusion); type: in vivo; conditions: 120 mg per square meter, diluted to about 0.5 mg/ml in 5% dextrose, approximately one hour co-infusion with cisplatin or doxorubicin
Description: (§1) The presently recommended dose of safingol, administered in the formulation described by the present invention, is 120 mg per square meter body surface or about 200 mg for a typical adult patient. A sterile emulsion is first diluted to a convenient drug concentration (typically about 0.5 mg/ml) using 5% dextrose for injection. A standard chemotherapeutic agent, such as cisplatin or doxorubicin, is co-infused with safingol over approximately a one hour time period. This therapy may be safety repeated every 14 to 21 days. […] Such toxicity may include intravascular hemolysis and lung embolism.

[3] = acute toxicity in animals when administered in organic solvents or in aqueous vehicles; type: in vivo; conditions: similar doses, may include intravascular hemolysis and lung embolism
Description: as §1

## CCCCCCCCCCCCC/C=C/[C@@H](O)[C@@H](N)CO [Sphingosine, 4-sphingenine]
[1]
  pKa: ~ 6.5

## CCCCCCCCCCCCCCC[C@H](O)[C@@H](N)CO [safingol, (2S,3S)-2-amino-1,3-octadecanediol]
Protein kinase C
  inhibition of protein kinase C: potent inhibitors of protein kinase C, both in vitro and in vivo
[2]
  acute toxicity, administered in the emulsion of the invention: no acute toxicity
[3]
  acute toxicity, in organic solvents or in aqueous vehicles: unacceptable acute toxicity is observed
